From the Kinase Knowledgebase extract (Sharma et al. 2016)

Key:
PIK3CD (Human) = PIK3CD (Human) (UniProt O00329); assay: Assessment of PIK3CD Kinase Activity
PIK3CB (Human) = PIK3CB (Human) (UniProt P42338); assay: Assessment of PIK3CB Kinase Activity
PIK3CG (human) = PIK3CG (human) (UniProt P48736); assay: Assessment of PIK3CG Kinase Activity
PIK3CA (human) = PIK3CA (human) (UniProt P42336); assay: Assessment of PIK3CA Kinase Activity
PIK3CA (human), sequence (P42336 whole entry, looked up): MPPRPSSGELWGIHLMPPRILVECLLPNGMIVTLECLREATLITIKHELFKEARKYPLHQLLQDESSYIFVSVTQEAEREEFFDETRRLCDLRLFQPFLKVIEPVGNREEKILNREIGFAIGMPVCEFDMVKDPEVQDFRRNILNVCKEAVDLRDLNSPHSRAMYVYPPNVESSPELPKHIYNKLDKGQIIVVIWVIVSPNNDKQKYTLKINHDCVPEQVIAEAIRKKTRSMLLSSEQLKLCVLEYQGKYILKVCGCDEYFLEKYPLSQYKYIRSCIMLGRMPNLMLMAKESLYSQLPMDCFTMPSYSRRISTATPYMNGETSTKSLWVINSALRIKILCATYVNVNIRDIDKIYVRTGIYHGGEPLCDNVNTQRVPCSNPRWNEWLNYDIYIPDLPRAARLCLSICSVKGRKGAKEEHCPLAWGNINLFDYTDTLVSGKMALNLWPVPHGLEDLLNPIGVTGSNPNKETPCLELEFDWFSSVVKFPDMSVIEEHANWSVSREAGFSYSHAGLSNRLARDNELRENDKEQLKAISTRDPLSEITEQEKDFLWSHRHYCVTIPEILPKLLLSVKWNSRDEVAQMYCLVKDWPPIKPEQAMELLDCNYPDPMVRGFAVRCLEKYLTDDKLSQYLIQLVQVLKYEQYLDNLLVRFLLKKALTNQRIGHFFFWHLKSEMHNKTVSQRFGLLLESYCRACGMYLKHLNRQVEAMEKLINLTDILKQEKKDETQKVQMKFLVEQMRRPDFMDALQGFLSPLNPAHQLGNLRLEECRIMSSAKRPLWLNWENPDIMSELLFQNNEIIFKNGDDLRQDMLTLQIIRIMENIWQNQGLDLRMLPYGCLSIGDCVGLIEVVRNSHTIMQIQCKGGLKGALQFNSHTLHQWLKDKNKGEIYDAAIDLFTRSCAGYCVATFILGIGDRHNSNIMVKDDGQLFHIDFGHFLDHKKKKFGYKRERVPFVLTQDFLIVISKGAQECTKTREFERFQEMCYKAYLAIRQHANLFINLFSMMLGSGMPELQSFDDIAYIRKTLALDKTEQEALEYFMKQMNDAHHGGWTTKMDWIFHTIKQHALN

PIK3CG (human), sequence (P48736 whole entry, looked up): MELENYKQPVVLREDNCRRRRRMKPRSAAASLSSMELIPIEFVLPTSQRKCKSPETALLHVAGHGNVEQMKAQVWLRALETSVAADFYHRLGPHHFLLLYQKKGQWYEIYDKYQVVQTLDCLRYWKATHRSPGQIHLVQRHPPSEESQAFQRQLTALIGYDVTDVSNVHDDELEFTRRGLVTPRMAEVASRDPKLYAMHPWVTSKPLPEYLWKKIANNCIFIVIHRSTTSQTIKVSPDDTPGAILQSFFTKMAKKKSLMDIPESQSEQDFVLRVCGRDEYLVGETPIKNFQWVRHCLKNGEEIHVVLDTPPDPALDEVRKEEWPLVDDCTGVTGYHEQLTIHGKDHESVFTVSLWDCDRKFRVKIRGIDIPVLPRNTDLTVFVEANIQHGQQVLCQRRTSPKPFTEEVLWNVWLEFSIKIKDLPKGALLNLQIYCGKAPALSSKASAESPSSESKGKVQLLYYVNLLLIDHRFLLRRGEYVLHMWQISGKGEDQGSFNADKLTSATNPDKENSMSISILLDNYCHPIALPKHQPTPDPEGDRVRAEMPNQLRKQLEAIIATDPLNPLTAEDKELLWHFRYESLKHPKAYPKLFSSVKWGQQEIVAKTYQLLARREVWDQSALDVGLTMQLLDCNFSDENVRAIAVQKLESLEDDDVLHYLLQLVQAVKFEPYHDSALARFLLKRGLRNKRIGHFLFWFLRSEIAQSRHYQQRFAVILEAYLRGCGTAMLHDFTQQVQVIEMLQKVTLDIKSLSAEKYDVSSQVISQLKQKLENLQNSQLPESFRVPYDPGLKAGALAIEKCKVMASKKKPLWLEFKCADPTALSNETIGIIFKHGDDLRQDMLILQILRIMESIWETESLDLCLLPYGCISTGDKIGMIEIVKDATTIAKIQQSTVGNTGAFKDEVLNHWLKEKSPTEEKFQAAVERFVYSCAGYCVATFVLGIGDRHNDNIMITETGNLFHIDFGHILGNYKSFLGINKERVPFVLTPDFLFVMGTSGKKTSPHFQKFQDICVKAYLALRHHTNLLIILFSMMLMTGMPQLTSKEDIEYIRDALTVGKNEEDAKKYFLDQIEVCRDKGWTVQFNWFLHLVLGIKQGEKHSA
PIK3CD (Human), sequence (O00329 whole entry, looked up): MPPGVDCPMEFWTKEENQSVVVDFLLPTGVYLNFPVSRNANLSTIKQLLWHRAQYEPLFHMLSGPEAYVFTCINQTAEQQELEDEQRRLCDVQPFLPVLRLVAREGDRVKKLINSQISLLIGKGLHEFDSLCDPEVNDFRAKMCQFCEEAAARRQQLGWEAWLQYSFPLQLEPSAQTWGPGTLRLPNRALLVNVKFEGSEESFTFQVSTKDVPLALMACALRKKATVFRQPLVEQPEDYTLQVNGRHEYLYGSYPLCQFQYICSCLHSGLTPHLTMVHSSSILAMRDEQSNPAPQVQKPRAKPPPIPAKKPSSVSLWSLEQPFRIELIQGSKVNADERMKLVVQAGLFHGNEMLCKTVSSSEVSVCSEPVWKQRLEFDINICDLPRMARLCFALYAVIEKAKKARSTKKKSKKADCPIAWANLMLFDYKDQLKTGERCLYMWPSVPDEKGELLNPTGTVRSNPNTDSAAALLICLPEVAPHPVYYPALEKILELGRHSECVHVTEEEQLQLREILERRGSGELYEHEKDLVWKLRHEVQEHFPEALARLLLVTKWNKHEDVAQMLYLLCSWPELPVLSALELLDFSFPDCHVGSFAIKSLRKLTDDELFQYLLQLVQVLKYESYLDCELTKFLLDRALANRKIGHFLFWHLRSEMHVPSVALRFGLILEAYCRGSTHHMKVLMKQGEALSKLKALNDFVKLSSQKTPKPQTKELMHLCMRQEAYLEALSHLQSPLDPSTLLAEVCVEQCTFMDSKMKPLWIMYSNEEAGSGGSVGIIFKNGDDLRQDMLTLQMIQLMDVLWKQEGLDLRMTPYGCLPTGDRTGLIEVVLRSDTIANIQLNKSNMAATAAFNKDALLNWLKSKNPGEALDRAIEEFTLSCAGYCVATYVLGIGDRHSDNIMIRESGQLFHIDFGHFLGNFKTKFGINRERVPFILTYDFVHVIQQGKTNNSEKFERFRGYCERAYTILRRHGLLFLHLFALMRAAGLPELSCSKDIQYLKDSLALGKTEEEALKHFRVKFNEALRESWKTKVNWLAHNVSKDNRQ
PIK3CB (Human), sequence (P42338 whole entry, looked up): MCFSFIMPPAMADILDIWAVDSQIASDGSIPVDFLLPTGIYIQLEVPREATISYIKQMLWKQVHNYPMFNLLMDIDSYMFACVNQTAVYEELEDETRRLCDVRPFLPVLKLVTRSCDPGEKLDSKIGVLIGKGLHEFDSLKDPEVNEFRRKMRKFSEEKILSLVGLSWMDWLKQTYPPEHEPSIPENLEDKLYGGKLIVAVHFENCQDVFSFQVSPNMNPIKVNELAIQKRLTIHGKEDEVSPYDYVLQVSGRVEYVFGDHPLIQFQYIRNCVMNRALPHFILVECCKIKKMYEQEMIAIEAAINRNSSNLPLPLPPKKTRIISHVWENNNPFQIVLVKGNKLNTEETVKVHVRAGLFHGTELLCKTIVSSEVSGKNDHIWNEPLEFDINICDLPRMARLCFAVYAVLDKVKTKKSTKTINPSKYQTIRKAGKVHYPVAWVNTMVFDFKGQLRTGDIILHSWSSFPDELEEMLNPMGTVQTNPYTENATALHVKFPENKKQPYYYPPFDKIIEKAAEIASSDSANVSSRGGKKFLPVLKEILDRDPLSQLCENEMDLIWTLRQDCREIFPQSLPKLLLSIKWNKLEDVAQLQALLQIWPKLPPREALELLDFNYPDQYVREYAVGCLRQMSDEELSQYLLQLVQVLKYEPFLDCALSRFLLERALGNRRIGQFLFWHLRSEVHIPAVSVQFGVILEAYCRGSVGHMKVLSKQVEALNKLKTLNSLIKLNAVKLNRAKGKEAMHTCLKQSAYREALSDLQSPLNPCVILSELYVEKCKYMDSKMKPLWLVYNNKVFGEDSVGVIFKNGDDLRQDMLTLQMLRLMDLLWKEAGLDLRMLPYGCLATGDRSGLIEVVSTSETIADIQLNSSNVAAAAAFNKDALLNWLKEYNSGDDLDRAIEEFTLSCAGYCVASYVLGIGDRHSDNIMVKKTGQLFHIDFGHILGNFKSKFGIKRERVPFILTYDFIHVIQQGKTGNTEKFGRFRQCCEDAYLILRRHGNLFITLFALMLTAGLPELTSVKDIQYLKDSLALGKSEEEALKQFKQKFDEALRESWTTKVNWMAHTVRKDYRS

| IC50 (PIK3CD (Human)) | IC50 (PIK3CB (Human)) | IC50 (PIK3CG (human)) | IC50 (PIK3CA (human)) | SMILES |
| --- | --- | --- | --- | --- |
| < 100 nM | 100 to 1000 nM | < 100 nM |  | CCOc1ncc(-c2cnc(N)nc2N[C@@H](C)c2cc3cccc(Cl)c3c(=O)n2-c2ccccc2)s1 |
| < 100 nM | > 10000 nM | < 100 nM |  | COc1ccc(-c2cccc3cc([C@H](C)Nc4nc(N)ncc4C#N)n(-c4ccccc4)c(=O)c23)nc1 |
| < 100 nM | > 10000 nM | < 100 nM |  | COc1cc(-c2cccc3cc([C@H](C)Nc4nc(N)ncc4[N+](=O)[O-])n(-c4ccccc4)c(=O)c23)ccn1 |
|  | > 10000 nM |  | > 10000 nM | COc1cc(N[C@@H](C)c2cc3cccc(Cl)c3c(=O)n2-c2ccccc2)nc(N)n1 |
|  | > 10000 nM |  | > 10000 nM | C[C@H](Nc1cc(Cl)ncn1)c1cc2cccc(Cl)c2c(=O)n1-c1ccccc1 |
| < 100 nM | 100 to 1000 nM | < 100 nM |  | C[C@H](Nc1nc(N)ncc1C#N)c1cc2cccc(Cl)c2c(=O)n1-c1ccc(Cl)cc1 |
| < 100 nM | 100 to 1000 nM | < 100 nM |  | C[C@H](Nc1nc(N)ncc1-c1ncco1)c1cc2cccc(Cl)c2c(=O)n1-c1ccccc1 |
| < 100 nM | > 10000 nM | 100 to 1000 nM |  | C[C@H](Nc1nc(N)ncc1C#N)c1cc2cccc(-c3cccc(NS(=O)(=O)N(C)C)c3)c2c(=O)n1-c1ccccc1 |
| < 100 nM | 100 to 1000 nM | < 100 nM |  | COc1ccc(-c2cccc3cc([C@H](C)Nc4nc(N)ncc4C#N)n(C4CC4)c(=O)c23)cn1 |
| < 100 nM | > 10000 nM | < 100 nM |  | C[C@H](Nc1nc(N)ncc1C#N)c1cc2cccc(-c3cccc(S(C)(=O)=O)c3)c2c(=O)n1-c1ccccc1 |
| < 100 nM | 100 to 1000 nM | < 100 nM |  | C#Cc1cccc2cc([C@H](C)Nc3nc(N)ncc3C#N)n(-c3ccccc3)c(=O)c12 |
| < 100 nM | < 100 nM | < 100 nM |  | CCn1c([C@H](C)Nc2nc(N)ncc2C#N)cc2cccc(Cl)c2c1=O |
| < 100 nM | 100 to 1000 nM | < 100 nM |  | C[C@H](Nc1nc(N)ncc1C#N)c1cc2cccc(-c3cccc(F)c3)c2c(=O)n1-c1ccccc1 |
| < 100 nM | 100 to 1000 nM | < 100 nM |  | C[C@H](Nc1nc(N)ncc1C#N)c1cc2cccc(Cl)c2c(=O)n1-c1cccc(F)c1 |
| < 100 nM | 100 to 1000 nM | < 100 nM |  | C[C@H](Nc1nc(N)ncc1C#N)c1cc2cccc(Cl)c2c(=O)n1-c1cc(F)ccc1F |
| < 100 nM | < 100 nM | < 100 nM |  | C[C@H](Nc1nc(N)ncc1C#N)c1cc2cccc(Cl)c2c(=O)n1-c1ccccc1 |
| < 100 nM | > 10000 nM | < 100 nM |  | Cc1cc(-c2cccc3cc([C@H](C)Nc4nc(N)ncc4C#N)n(-c4ccccc4)c(=O)c23)cn(C)c1=O |
| < 100 nM | > 10000 nM | < 100 nM |  | C[C@H](Nc1nc(N)ncc1C(=O)N(C)C)c1cc2cccc(-c3cnn(C)c3)c2c(=O)n1-c1ccccc1 |
| < 100 nM | > 10000 nM | < 100 nM |  | COc1cc(-c2cccc3cc([C@H](C)Nc4nc(N)ncc4-c4ccncc4)n(-c4ccccc4)c(=O)c23)ccn1 |
|  | 100 to 1000 nM |  |  | COc1cc(-c2cccc3cc([C@H](C)N)n(-c4ccccc4)c(=O)c23)cnc1C |

| IC50 (PIK3CD (Human)) | IC50 (PIK3CB (Human)) | IC50 (PIK3CG (human)) | IC50 (PIK3CA (human)) | SMILES |
| --- | --- | --- | --- | --- |
| 100 to 1000 nM | > 10000 nM | 100 to 1000 nM |  | COc1cc(-c2cccc3cc([C@H](C)Nc4nc(N)ncc4-c4cccnc4)n(-c4ccccc4)c(=O)c23)ccn1 |
| < 100 nM | < 100 nM | < 100 nM |  | CCOc1nc(-c2cnc(N)nc2N[C@@H](C)c2cc3cccc(Cl)c3c(=O)n2-c2ccccc2)cs1 |
| < 100 nM | > 10000 nM | < 100 nM |  | CNc1cc(-c2cccc3cc([C@H](C)Nc4nc(N)ncc4C#N)n(-c4ccccc4)c(=O)c23)ccn1 |
| < 100 nM | 100 to 1000 nM | < 100 nM |  | Cc1cccc2cc([C@H](C)Nc3nc(N)ncc3C#N)n(-c3cccc(F)c3)c(=O)c12 |
| < 100 nM | 100 to 1000 nM | < 100 nM |  | C[C@H](Nc1nc(N)ncc1C#N)c1cc2cccc(Cl)c2c(=O)n1-c1ccccc1F |
| < 100 nM | 100 to 1000 nM | < 100 nM |  | Cc1csc(-c2cnc(N)nc2N[C@@H](C)c2cc3cccc(Cl)c3c(=O)n2-c2ccccc2)n1 |
|  | > 10000 nM |  | > 10000 nM | COc1cc(-c2cccc3cc([C@H](C)Nc4nc(N)ncc4C(=O)N4CCOCC4)n(-c4ccccc4)c(=O)c23)ccn1 |
|  | > 10000 nM |  | > 10000 nM | C[C@H](Nc1nc(N)ncc1NC(=O)c1ccccc1)c1cc2cccc(Cl)c2c(=O)n1-c1ccccc1 |
| < 100 nM | > 10000 nM | < 100 nM |  | C[C@H](Nc1nc(N)ncc1C#N)c1cc2cccc(-c3cncc(OC(F)F)c3)c2c(=O)n1-c1ccccc1 |
| < 100 nM | 100 to 1000 nM | < 100 nM |  | C[C@H](Nc1nc(N)ncc1C(=O)N(C)C)c1cc2cccc(Cl)c2c(=O)n1-c1ccccc1 |
| < 100 nM | 100 to 1000 nM | < 100 nM |  | C[C@H](Nc1nc(N)ncc1-c1cscn1)c1cc2cccc(Cl)c2c(=O)n1-c1ccccc1 |
| < 100 nM | 100 to 1000 nM | < 100 nM |  | CC#Cc1cccc2cc([C@H](C)Nc3nc(N)ncc3C#N)n(-c3ccccc3)c(=O)c12 |
| < 100 nM | > 10000 nM | < 100 nM |  | C[C@H](Nc1nc(N)ncc1C#N)c1cc2cccc(-c3ccc(O)nc3)c2c(=O)n1-c1ccccc1 |
| < 100 nM | > 10000 nM | < 100 nM |  | Cc1ncc(-c2cccc3cc([C@H](C)Nc4nc(N)ncc4C#N)n(-c4cccc(F)c4)c(=O)c23)cn1 |
| < 100 nM |  | < 100 nM | 100 to 1000 nM | CCOc1cc(-c2cccc3cc([C@H](C)Nc4nc(N)ncc4C#N)n(-c4ccccc4)c(=O)c23)ccn1 |
| < 100 nM | > 10000 nM | < 100 nM |  | C[C@H](Nc1nc(N)ncc1C#N)c1cc2cccc(-c3ccc(S(C)(=O)=O)cc3)c2c(=O)n1-c1ccccc1 |
| < 100 nM |  | < 100 nM | 100 to 1000 nM | C[C@H](Nc1nc(N)ncc1C#N)c1cc2cccc(-c3ccc(F)cc3)c2c(=O)n1-c1ccccc1 |
| < 100 nM |  | < 100 nM | 100 to 1000 nM | C[C@H](Nc1nc(N)ncc1C#N)c1cc2cccc(-c3cncc(N(C)S(C)(=O)=O)c3)c2c(=O)n1-c1ccccc1 |
| 100 to 1000 nM |  | 100 to 1000 nM | > 10000 nM | C[C@H](Nc1nc(N)ncc1C#N)c1cc2cccc(Cl)c2c(=O)n1-c1ccc(OC(F)(F)F)cc1 |
| < 100 nM |  | < 100 nM | 100 to 1000 nM | Cc1cncc(-c2cccc3cc([C@H](C)Nc4nc(N)ncc4C#N)n(-c4cccc(F)c4)c(=O)c23)c1 |

| IC50 (PIK3CD (Human)) | IC50 (PIK3CB (Human)) | IC50 (PIK3CG (human)) | IC50 (PIK3CA (human)) | SMILES |
| --- | --- | --- | --- | --- |
| < 100 nM | > 10000 nM | < 100 nM |  | Cc1ncc(-c2cccc3cc([C@H](C)Nc4nc(N)ncc4C#N)n(-c4ccccc4)c(=O)c23)cn1 |
| < 100 nM | < 100 nM | < 100 nM |  | CC(C)n1c([C@H](C)Nc2nc(N)ncc2C#N)cc2cccc(Cl)c2c1=O |
| 100 to 1000 nM |  | < 100 nM | > 10000 nM | C[C@H](Nc1nc(N)ncc1-c1ccncc1)c1cc2cccc(Cl)c2c(=O)n1-c1ccccc1 |
| < 100 nM | 100 to 1000 nM | < 100 nM |  | C[C@H](Nc1nc(N)ncc1C#N)c1cc2cccc(Cl)c2c(=O)n1-c1ccon1 |
| < 100 nM | 100 to 1000 nM | < 100 nM |  | C[C@H](Nc1nc(N)ncc1-c1cncs1)c1cc2cccc(Cl)c2c(=O)n1-c1ccccc1 |
| < 100 nM |  | < 100 nM | > 10000 nM | C[C@H](Nc1nc(N)ncc1C#N)c1cc2cccc(O)c2c(=O)n1-c1ccccc1 |
| < 100 nM |  | < 100 nM | > 10000 nM | Cc1ccc(-n2c([C@H](C)Nc3nc(N)ncc3C#N)cc3cccc(Cl)c3c2=O)cc1 |
| < 100 nM |  | < 100 nM | 100 to 1000 nM | C[C@H](Nc1nc(N)ncc1C#N)c1cc2cccc(-c3ccc(=O)n(C4CCOCC4)c3)c2c(=O)n1-c1ccccc1 |
| < 100 nM |  | < 100 nM | 100 to 1000 nM | C[C@H](Nc1nc(N)ncc1C#N)c1cc2cccc(-c3cnc4ccccc4c3)c2c(=O)n1-c1cccc(F)c1 |
| < 100 nM | 100 to 1000 nM | < 100 nM |  | C[C@H](Nc1nc(N)ncc1C#N)c1cc2cccc(Cl)c2c(=O)n1-c1ccc(F)cc1F |
| 100 to 1000 nM |  | < 100 nM | > 10000 nM | C[C@H](Nc1nc(N)ncc1C#N)c1cc2cccc(Cl)c2c(=O)n1-c1c(F)cc(F)cc1F |
| 100 to 1000 nM |  | < 100 nM | > 10000 nM | C[C@H](Nc1nc(N)ncc1-c1ccc(O)cc1)c1cc2cccc(Cl)c2c(=O)n1-c1ccccc1 |
| < 100 nM | > 10000 nM | 100 to 1000 nM |  | C[C@H](Nc1nc(N)ncc1C#N)c1cc2cccc(-c3ccnnc3)c2c(=O)n1-c1ccccc1 |
| < 100 nM |  | 100 to 1000 nM | > 10000 nM | C[C@H](Nc1nc(N)ncc1C#N)c1cc2cccc(-c3ccnnc3)c2c(=O)n1-c1cccc(F)c1 |
| < 100 nM | > 10000 nM | < 100 nM |  | Cc1ccc(-c2cccc3cc([C@H](C)Nc4nc(N)ncc4C#N)n(-c4ccccc4)c(=O)c23)cn1 |
| 100 to 1000 nM |  | < 100 nM | > 10000 nM | Cc1cnc(-c2cnc(N)nc2N[C@@H](C)c2cc3cccc(Cl)c3c(=O)n2-c2ccccc2)s1 |
| 100 to 1000 nM |  | < 100 nM | > 10000 nM | C[C@H](Nc1nc(N)ncc1C#N)c1cc2cccc(Cl)c2c(=O)n1-c1ccc2c(c1)OCO2 |
| < 100 nM | 100 to 1000 nM | < 100 nM |  | C#Cc1cnc(N)nc1N[C@@H](C)c1cc2cccc(Cl)c2c(=O)n1-c1ccccc1 |
| < 100 nM | < 100 nM | < 100 nM |  | C[C@H](Nc1nc(N)ncc1C#N)c1cc2cccc(Cl)c2c(=O)n1-c1cscn1 |

| SMILES | IC50 (PIK3CD (Human)) | IC50 (PIK3CB (Human)) | IC50 (PIK3CG (human)) | IC50 (PIK3CA (human)) |
| --- | --- | --- | --- | --- |
| C[C@H](Nc1nc(N)ncc1C#N)c1nc2cccc(Cl)c2c(=O)n1-c1ccccc1 | < 100 nM | 100 to 1000 nM | < 100 nM |  |
